{"source": "patent US20060025458A1", "about": "“Alkylammonium compounds as antifungal and antitrypanosomal agents” (University of Connecticut, priority 2004, published 2006)", "key": {"C. albicans strain BWP17": {"tested_on": "C. albicans strain BWP17", "assay": "Growth inhibition of C. albicans in vitro", "format": "cell-based, Candida albicans", "details": "read-out: IC50, C. albicans proliferation", "procedure": "G15, E24 and C35 inhibited at higher concentrations (>10 μM)."}, "[1]": {"tested_on": "P. falciparum-infected erythrocytes", "details": "after 3 h incubation; cited from earlier work"}, "[2]": {"tested_on": "endogenous PtdSer decarboxylase activity", "assay": "Serine labeling: PtdEtn formation from PtdSer in P. falciparum-infected erythrocytes", "format": "cell-based, Plasmodium falciparum", "procedure": "FIG. 10B. Effect of G25 on PtdEtn and PtdSer synthesis from serine. 5-6×10^7 synchronized P. falciparum-infected erythrocytes (7% trophozoite stage) were pre-incubated at 4% haematocrit for 1 h in RPMI-based medium containing the indicated concentration of G25 before adding 10 μM [^14C]-serine (57 mCi/mmol). After incubation at 37° C. for 3 h, the cellular lipids were extracted and fractionated on TLC plates for quantification of radioactivity in PtdSer (black diamonds), and PtdEtn (white circles).\nLabeling Studies and Phospholipid Analysis in P. falciparum: Nigerian strains of P. falciparum were asexually cultured in the presence of basic medium (RPMI 1640 supplemented with 25 mM Hepes, pH 7.4) and 10% AB^+ human serum (Trager and Jensen, 1976). Parasite synchronization was obtained with three successive 5% sorbitol treatments (Lambros and Vanderberg, 1979). Synchronized P. falciparum-infected erythrocytes (7-10% parasitemia, trophozoites) were pre-incubated for 1 hour at 37° C. at 4% hematocrit in 2 ml (final volume) basic medium in the absence or the presence of different concentrations of the compound G25. The appropriate radioactive precursor of lipid metabolism was added followed by further 3 h of incubation. […] The silica gel of the lipid spots were scraped directly into scintillation vials containing 3 ml of liquid-scintillation fluid and counted in a Beckman LS 5000 spectrophotometer. The amount of labeled precursors incorporated into cellular lipids (nmol×10^7 cell^−1×h^−1) was computed on the basis of radioactivity incorporated into lipids and the specific activity of the precursors in the incubation medium.\nThe possible inhibition of PtdSer decarboxylase activity in P. falciparum by G25 was investigated. P. falciparum-infected erythrocytes were labeled with radiolabeled serine, which is readily incorporated into PtdSer, in the presence or absence of increasing concentrations of G25, and the effect of this compound on the parasite endogenous PtdSer decarboxylase activity was measured by following the formation of PtdEtn from PtdSer (FIG. 10B). […]"}, "[3]": {"tested_on": "promastigote form of L. major", "assay": "Growth inhibition of Leishmania major promastigotes", "format": "cell-based", "details": "read-out: IC50 of choline analogs in Leishmania major, WT", "procedure": "For those drugs, IC50 values were determined."}, "[4]": {"tested_on": "S. cerevisiae wild type and knockouts of PtdCho biosynthesis genes", "assay": "Plate growth limiting dilution assay of yeast phospholipid mutants with G25", "format": "cell-based, Saccharomyces cerevisiae", "details": "5 μM G25, plate assay", "procedure": "FIG. 9. Sensitivity to G25 of wild type and mutants affected in different steps of PtdCho biosynthesis. Plate growth limiting dilution assays were performed as described in Materials and Methods in the absence or the presence of 5 μM of G25. The strains and genes deleted in the strains used are described in “Material and Methods”.\nStrains and Growth Conditions: Wild-type (BY4741: Mata his3Δ1 leu2Δ0 met15Δ0 ura3Δ0) and mutant (hnm1Δ, psd1Δ, cki1Δ, pem1Δ, ept1Δ, cpt1Δ, eki1Δ, psd2Δ, pct1Δ, ect1Δ, pem2Δ) S. cerevisiae strains used in this study were purchased from Research Genetics (Invitrogen, USA). These strains were grown on YPD (1% yeast extract, 2% dextrose and 2% peptone) or synthetic complete medium (SD, 1.7% yeast nitrogen base, 5% ammonium sulfate and 2% dextrose). The Nigerian strain of P. falciparum was propagated in human red blood cells at 4% hematocrit by the method of Trager and Jensen (1976). Plate growth assays were performed by growing wild-type and mutant yeast strains in YPD to mid-log phase. Cultures were serially diluted 1:10 starting with a density of 3×10^7 cells/ml. The growth of cells was monitored by spotting 3 μl of each dilution onto solid medium in the absence or presence of 5 μM of G25.\nSensitivity of mutants affected in phospholipid metabolism to choline analogs. […] However, the steps in the phospholipid biosynthesis pathways that are specifically targeted by these compounds are not yet known. To assess whether the mode of action of G25 is linked to disruption of phospholipid metabolism, yeast was used as a surrogate system to compare the sensitivity to G25 of the wild-type strain and eleven individual knockouts in the CDP-choline, CDP-ethanolamine and CDP-DAG pathways. […] No resistance was conferred by loss of the PtdEtn methyltransferases, Pem1 and Pem2, or the enzymes of the CDP-ethanolamine pathway. Furthermore, unlike psd1[…] strain, loss of the Golgi/vacuole PtdSer decarboxylase, Psd2, which synthesizes 5% of the PtdEtn pool only, had no effect on G25 sensitivity."}}, "data": [{"smiles": "C[N+]1(CCCCCCCCCCCCCCCC[N+]2(C)CCCC2)CCCC1.[Br-].[Br-]", "note": "[G25, 1,16-hexadecamethylenebis[N-methylpyrrolidinium]dibromide]", "values": [{"measurement": "IC50", "setting": "C. albicans strain BWP17", "result": "~5", "unit": "µM"}, {"measurement": "cellular accumulation ratio (CAR)", "setting": "[1]", "result": "~300"}, {"measurement": "decrease in the pool of PtdEtn formed from PtdSer", "setting": "[2]; 100 μM G25", "result": 77, "unit": "%"}, {"measurement": "effect on first step of the CDP-DAG pathway catalyzed by PtdSer synthase", "setting": "[2]; 100 μM G25", "result": "no effect"}, {"measurement": "total incorporation of serine", "setting": "[2]; increasing concentrations of G25", "result": "not affected"}, {"measurement": "IC50", "setting": "[3]", "result": 8.1, "unit": "µM"}, {"measurement": "effect of loss of Psd2 on sensitivity", "setting": "[4]", "result": "no effect"}, {"measurement": "resistance conferred by loss of Cki1, Cpt1, Pct1 and Hnm1 (CDP-choline pathway)", "setting": "[4]", "result": "substantial resistance"}, {"measurement": "resistance conferred by loss of Pem1, Pem2 or CDP-ethanolamine pathway enzymes", "setting": "[4]", "result": "No resistance"}, {"measurement": "resistance of psd1 deletion strain", "setting": "[4]", "result": "highly resistant"}]}]}
